# Reference: PubChem BioAssay AID220 (DTP/NCI, 2004)
# “And” between values parts separate entries of the source, which are not always exact repeats. Identical values can stand only once. Inconclusive results are not listed.
# System: CD8F1 mice, subcutaneous mammary adenocarcinoma, T/C%
# Assay: NCI In Vivo Anticancer Drug Screen. Data for tumor model Mammary Adenocarcinoma CD8F1 (subcutaneous) in CD8F1
# Details: higher = larger tumour
# How it was run: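 Tumor-bearing mice, transplantable model; readout survival or tumor size; value = treated (T) / vehicle control (C).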
# [1] = endpoint: median tumor weight change, dose: 125.0 mg/kg/injection, schedule: Q01DX001 (ip), vehicle: saline with Tween-80
# [2] = endpoint: median tumor weight change, dose: 250.0 mg/kg/injection, schedule: Q01DX001 (ip), vehicle: saline with Tween-80
# [3] = endpoint: median tumor weight change, dose: 500.0 mg/kg/injection, schedule: Q01DX001 (ip), vehicle: saline with Tween-80
# [4] = endpoint: median tumor weight (est.), dose: 12.5 mg/kg/injection, schedule: Q07DX005 (ip), vehicle: saline with Tween-80
# [5] = endpoint: median tumor weight (est.), dose: 25.0 mg/kg/injection, schedule: Q07DX005 (ip), vehicle: saline with Tween-80
# [6] = endpoint: median tumor weight (est.), dose: 50.0 mg/kg/injection, schedule: Q07DX005 (ip), vehicle: saline with Tween-80
# [7] = endpoint: median tumor weight (est.), dose: 100.0 mg/kg/injection, schedule: Q07DX005 (ip), vehicle: saline with Tween-80
# [8] = endpoint: median tumor weight (est.), dose: 200.0 mg/kg/injection, schedule: Q07DX005 (ip), vehicle: saline with Tween-80
# [9] = endpoint: median tumor weight change, dose: 31.25 mg/kg/injection, schedule: Q01DX001 (ip), vehicle: saline with Tween-80
# [10] = endpoint: median tumor weight change, dose: 62.5 mg/kg/injection, schedule: Q01DX001 (ip), vehicle: saline with Tween-80
# [11] = endpoint: median tumor weight (est.), dose: 50.0 mg/kg/injection, schedule: Q07DX005 (ip), vehicle: saline
# [12] = endpoint: median tumor weight (est.), dose: 400.0 mg/kg/injection, schedule: Q07DX005 (ip), vehicle: saline
# [13] = endpoint: median tumor weight (est.), dose: 400.0 mg/kg/injection, schedule: Q07DX005 (ip), vehicle: saline with Tween-80
# [14] = endpoint: median tumor weight (est.), dose: 12.5 mg/kg/injection, schedule: Q07DX005 (ip), vehicle: Klucel (hydroxypropylcellulose) (HPC)
# [15] = endpoint: median tumor weight (est.), dose: 25.0 mg/kg/injection, schedule: Q07DX005 (ip), vehicle: Klucel (hydroxypropylcellulose) (HPC)
# [16] = endpoint: median tumor weight (est.), dose: 50.0 mg/kg/injection, schedule: Q07DX005 (ip), vehicle: Klucel (hydroxypropylcellulose) (HPC)
smiles,measurement,setting,value
[O-][n+]1c(CN2CCCCC2)nc2cccc3c2c1-c1ccccc1-3,T/C,[1],78 % of control
same,T/C,[2],104 % of control
same,T/C,[3],84 % of control
C=CCNc1nc2c(s1)CCc1cc(OC)c(OC)cc1-2,T/C,[4],65 % of control
same,T/C,[5],44 % of control
same,T/C,[6],55 % of control
same,T/C,[7],74 % of control
same,T/C,[8],81 % of control
CCC(C)C(=O)OC1C(=O)OC2CC3C(C)=CC(=O)C(O)C3(C)C3C4(O)OCC23C1C(C)C4O (centres undefined),T/C,"endpoint: median tumor weight (est.), dose: 0.5 mg/kg/injection, schedule: Q07DX005 (ip), vehicle: saline",70 % of control
same,T/C,"endpoint: median tumor weight (est.), dose: 1.0 mg/kg/injection, schedule: Q07DX005 (ip), vehicle: saline with Tween-80",237 % of control
same,T/C,"endpoint: median tumor weight (est.), dose: 1.0 mg/kg/injection, schedule: Q07DX005 (ip), vehicle: saline",95 % of control
same,T/C,"endpoint: median tumor weight (est.), dose: 2.0 mg/kg/injection, schedule: Q07DX005 (ip), vehicle: saline",70 % of control
same,T/C,"endpoint: median tumor weight (est.), dose: 4.0 mg/kg/injection, schedule: Q07DX005 (ip), vehicle: saline with Tween-80",165 % of control
same,T/C,"endpoint: median tumor weight (est.), dose: 4.0 mg/kg/injection, schedule: Q07DX005 (ip), vehicle: saline",74 % of control
CCCCC(=O)OCC(=O)[C@]1(O)Cc2c(O)c3c(c(O)c2[C@@H](OC2CC(NC(=O)C(F)(F)F)C(O)C(C)O2)C1)C(=O)c1c(OC)cccc1C3=O (some centres undefined),T/C,"endpoint: median tumor weight (est.), dose: 8.0 mg/kg/injection, schedule: Q07DX005 (ip), vehicle: distilled water + Tween-80",77 % of control
same,T/C,"endpoint: median tumor weight (est.), dose: 16.0 mg/kg/injection, schedule: Q07DX005 (ip), vehicle: distilled water + Tween-80",86 % of control
same,T/C,"endpoint: median tumor weight (est.), dose: 32.0 mg/kg/injection, schedule: Q07DX005 (ip), vehicle: distilled water + Tween-80",58 % of control
same,T/C,"endpoint: median tumor weight (est.), dose: 44.0 mg/kg/injection, schedule: Q07DX004 (ip), vehicle: clinical formulation",51 % of control
same,T/C,"endpoint: median tumor weight (est.), dose: 64.0 mg/kg/injection, schedule: Q07DX005 (ip), vehicle: distilled water + Tween-80",18 % of control
same,T/C,"endpoint: median tumor weight (est.), dose: 67.0 mg/kg/injection, schedule: Q07DX004 (ip), vehicle: clinical formulation",32 % of control
same,T/C,"endpoint: median tumor weight (est.), dose: 100.0 mg/kg/injection, schedule: Q07DX004 (ip), vehicle: clinical formulation",10 % of control
same,T/C,"endpoint: median tumor weight (est.), dose: 128.0 mg/kg/injection, schedule: Q07DX005 (ip), vehicle: distilled water + Tween-80",2 % of control
same,T/C,"endpoint: median tumor weight (est.), dose: 150.0 mg/kg/injection, schedule: Q07DX004 (ip), vehicle: clinical formulation",3 % of control
same,T/C,"endpoint: median tumor weight change, dose: 90.0 mg/kg/injection, schedule: Q01DX001 (ip), vehicle: clinical formulation",45 % of control
NC(=S)Nc1cccc2ccccc12,T/C,[9],58 % of control
same,T/C,[10],80 % of control
Nc1nc(=O)n(C2OC(CO)C(O)C2O)cc1F (centres undefined),T/C,"endpoint: median tumor weight (est.), dose: 12.5 mg/kg/injection, schedule: Q07DX005 (ip), vehicle: saline",91 % of control
same,T/C,"endpoint: median tumor weight (est.), dose: 25.0 mg/kg/injection, schedule: Q07DX005 (ip), vehicle: saline",93 % of control
same,T/C,[11],61 % of control
same,T/C,"endpoint: median tumor weight (est.), dose: 100.0 mg/kg/injection, schedule: Q07DX005 (ip), vehicle: saline",78 % of control
same,T/C,"endpoint: median tumor weight (est.), dose: 200.0 mg/kg/injection, schedule: Q07DX005 (ip), vehicle: saline",46 % of control
same,T/C,[12],34 % of control
BrC1CC(Br)c2c1c1c(c3c2C(Br)CC3Br)C(Br)CC1Br (centres undefined),T/C,[4],87 % of control
same,T/C,[5],210 % of control and 98 % of control
same,T/C,[7],86 % of control
same,T/C,[8],71 % of control and 75 % of control
same,T/C,[13],40 % of control
same,T/C,[2],85 % of control
same,T/C,[3],88 % of control
same,T/C,"endpoint: median tumor weight change, dose: 1000.0 mg/kg/injection, schedule: Q01DX001 (ip), vehicle: saline with Tween-80",59 % of control
same,T/C,"endpoint: median tumor weight change, dose: 2000.0 mg/kg/injection, schedule: Q01DX001 (ip), vehicle: saline with Tween-80",51 % of control
CCCCCC[C@H]([C@H](C)O)n1cnc2c(N)ncnc21,T/C,[14],60 % of control
same,T/C,[15],305 % of control
same,T/C,[16],206 % of control and 84 % of control
same,T/C,"endpoint: median tumor weight (est.), dose: 100.0 mg/kg/injection, schedule: Q07DX005 (ip), vehicle: Klucel (hydroxypropylcellulose) (HPC)",106 % of control
same,T/C,"endpoint: median tumor weight change, dose: 50.0 mg/kg/injection, schedule: Q01DX001 (ip), vehicle: Klucel (hydroxypropylcellulose) (HPC)",68 % of control
same,T/C,"endpoint: median tumor weight change, dose: 100.0 mg/kg/injection, schedule: Q01DX001 (ip), vehicle: Klucel (hydroxypropylcellulose) (HPC)",106 % of control
same,T/C,"endpoint: median tumor weight change, dose: 200.0 mg/kg/injection, schedule: Q01DX001 (ip), vehicle: Klucel (hydroxypropylcellulose) (HPC)",79 % of control
CC(=O)NCCCCCCNC(C)=O,T/C,"endpoint: median tumor weight change, dose: 125.0 mg/kg/injection, schedule: Q01DX001 (ip), vehicle: saline",58 % of control
same,T/C,"endpoint: median tumor weight change, dose: 500.0 mg/kg/injection, schedule: Q01DX001 (ip), vehicle: saline",67 % of control
same,T/C,"endpoint: median tumor weight change, dose: 1000.0 mg/kg/injection, schedule: Q01DX001 (ip), vehicle: saline",52 % of control and 72 % of control
same,T/C,"endpoint: median tumor weight change, dose: 4000.0 mg/kg/injection, schedule: Q01DX001 (ip), vehicle: saline",39 % of control
O=C(Nc1nncs1)c1cccs1,T/C,[1],92 % of control and 100 % of control
O=C(O)O,T/C,[11],104 % of control
same,T/C,[12],72 % of control and 55 % of control
Cc1c2cc(Cl)c3ccccc3c2c[n+]2ccccc12,T/C,[4],52 % of control
same,T/C,[5],52 % of control and 57 % of control
same,T/C,[6],61 % of control and 65 % of control
CCCCNC(C)[C@]1(O)Cc2c(O)c3c(c(O)c2[C@@H](OC2CC(N)C(O)C(C)O2)C1)C(=O)c1c(OC)cccc1C3=O (some centres undefined),T/C,"endpoint: median tumor weight (est.), dose: 2.67 mg/kg/injection, schedule: Q07DX005 (ip), vehicle: water",89 % of control
same,T/C,"endpoint: median tumor weight (est.), dose: 4.0 mg/kg/injection, schedule: Q07DX005 (ip), vehicle: water",74 % of control
same,T/C,"endpoint: median tumor weight (est.), dose: 6.0 mg/kg/injection, schedule: Q07DX005 (ip), vehicle: water",47 % of control
O=[n+]1c2ccccc2n([O-])c2ccccc21.[Cl][Ni][Cl],T/C,"endpoint: median tumor weight change, dose: 15.63 mg/kg/injection, schedule: Q01DX001 (ip), vehicle: saline with Tween-80",87 % of control
same,T/C,[9],52 % of control
O=Cc1c(O)c2ccccc2[nH]c1=O,T/C,"endpoint: median tumor weight change, dose: 62.0 mg/kg/injection, schedule: Q01DX001 (ip), vehicle: saline with Tween-80",112 % of control
same,T/C,[10],69 % of control
same,T/C,[2],61 % of control and 67 % of control
same,T/C,[3],55 % of control
Nc1ccc2nc3ccc(N)cc3[n+](-c3ccccc3)c2c1,T/C,"endpoint: median tumor weight (est.), dose: 6.25 mg/kg/injection, schedule: Q07DX005 (ip), vehicle: Klucel (hydroxypropylcellulose) (HPC)",90 % of control
same,T/C,"endpoint: median tumor weight (est.), dose: 6.25 mg/kg/injection, schedule: Q07DX005 (ip), vehicle: suspension in saline",72 % of control
same,T/C,[14],35 % of control
same,T/C,"endpoint: median tumor weight (est.), dose: 12.5 mg/kg/injection, schedule: Q07DX005 (ip), vehicle: suspension in saline",64 % of control
same,T/C,[15],80 % of control
same,T/C,"endpoint: median tumor weight (est.), dose: 25.0 mg/kg/injection, schedule: Q07DX005 (ip), vehicle: suspension in saline",95 % of control
same,T/C,[16],45 % of control
CC(Cc1ccc(O)cc1)NCC(O)c1ccc(O)c(O)c1 (centres undefined),T/C,[4],49 % of control
same,T/C,[5],90 % of control
same,T/C,[6],106 % of control
same,T/C,[8],110 % of control
same,T/C,[13],84 % of control
CN=C(N)N/N=C(\c1ccccc1)c1ccc(Br)cc1,T/C,"endpoint: median tumor weight change, dose: 15.6 mg/kg/injection, schedule: Q01DX001 (ip), vehicle: saline with Tween-80",71 % of control
same,T/C,[9],56 % of control
same,T/C,[10],55 % of control
O=c1[nH]cnc2[nH]ncc12,T/C,"endpoint: median tumor weight change, dose: 125.0 mg/kg/injection, schedule: Q01DX001 (ip), vehicle: suspension in saline",104 % of control
same,T/C,"endpoint: median tumor weight change, dose: 250.0 mg/kg/injection, schedule: Q01DX001 (ip), vehicle: suspension in saline",71 % of control
